Measured values from patent US10154997B2, “Treatment of parasitic diseases using KDAC inhibitor compounds” (Washington University, priority 2015, dated 2018).
Like-named read-outs stand apart in the source and are kept apart here.

Key:
B. malayi = assay: Endoparasites dose response assay (Endoparasites_DR), B. malayi; design: species or system Brugia malayi; settings: nematode B. malayi
[1] = test system: parasites (nematodes and protists); assay: Compound screening in parasites, summary statements
human cancer cell lines = assay: Activity on human cancer cell lines; assay type: cell-based
L929 mouse fibroblast = assay: Cytotoxicity viability assay (CYT vt); assay type: cell-based
H. contortus = assay: Endoparasites dose response assay (Endoparasites_DR), H. contortus; settings: Haemonchus contortus, 96 h

SMILES: Cn1cc(/C=C/C(=O)c2cccc(NC(=O)OC(C)(C)C)c2)cc1C(=O)NO [MC2776]
- EC50 (B. malayi): 4.39 µM
- efficacy in the protists ([1]; any of the protists): did not show any efficacy
- IC50 (human cancer cell lines): > 10 µM
- IC50 (L929 mouse fibroblast; host-cell line, read-out: activity in the host-cell line): > 10 µM

SMILES: CCCCCCCC(=O)SCC/C=C/[C@@H]1CC(=O)NCc2nc(cs2)C2=N[C@@](C)(CS2)C(=O)N[C@@H](C(C)C)C(=O)O1 [SD-L-148, Largazole, reference compound]
- IC50 (H. contortus): 7.1 µM
- IC50 (L929 mouse fibroblast; Mus musculus, L929): 0.101 µM

SMILES: CC(C)(C)OC(=O)Nc1cccc(C(=O)/C=C/c2ccc(/C=C/C(=O)NO)cc2)c1 [MC2780]
- pan-parasite potential ([1]; across parasites screened): demonstrated pan-parasite potential
